Positions count from the first letter of the chain named. “Also recorded” adds a separate entry of the source.
What was measured:
Assay in all cases: Bio-layer Interferometry (BLI) steady-state binding to immobilized oligosaccharides
Settings in all cases: in words
[1] = molecular target: T1, Streptococcus pneumoniae NanB fragment (residues 30-697, SEQ ID NO:4) variant Sia-PS1, Y653F (Streptococcus pneumoniae serotype 4, UniProt Q54727, Y653F)
T1 construct: exemplified by a NanB fragment (residues 30-697); made in house; host or cells: pET28a+ based plasmid
T1 sequence (Q54727 30-692 Y653F): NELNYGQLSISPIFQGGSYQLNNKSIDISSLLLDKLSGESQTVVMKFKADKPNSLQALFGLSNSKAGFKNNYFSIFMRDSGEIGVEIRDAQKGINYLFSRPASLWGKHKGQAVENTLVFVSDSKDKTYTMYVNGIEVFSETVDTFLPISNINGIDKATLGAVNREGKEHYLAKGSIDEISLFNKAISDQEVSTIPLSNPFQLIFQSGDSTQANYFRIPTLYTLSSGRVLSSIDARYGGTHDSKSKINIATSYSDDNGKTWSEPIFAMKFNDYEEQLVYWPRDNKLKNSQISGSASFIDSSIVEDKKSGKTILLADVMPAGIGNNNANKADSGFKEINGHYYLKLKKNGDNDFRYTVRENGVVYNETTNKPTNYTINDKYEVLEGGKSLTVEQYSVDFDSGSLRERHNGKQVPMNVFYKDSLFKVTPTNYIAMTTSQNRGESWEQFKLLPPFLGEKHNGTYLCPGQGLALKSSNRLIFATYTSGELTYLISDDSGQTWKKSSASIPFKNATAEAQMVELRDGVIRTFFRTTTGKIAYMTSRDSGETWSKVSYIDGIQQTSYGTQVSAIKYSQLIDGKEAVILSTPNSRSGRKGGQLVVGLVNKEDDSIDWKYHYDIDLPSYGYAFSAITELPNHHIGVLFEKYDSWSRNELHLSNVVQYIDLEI
Source text: (§1) Lsp=lactose (no sialic acid), 3′SL=α2,3-sialyllactose, 6′SL=α2,6-sialyllactose, GD3=GD3 oligosaccharide that contains a terminal α2,8-linked Neu5Ac residue and an internal α2,3-linked Neu5Ac residue.
(§2) The pan-specific sialic acid-recognizing affinity reagent of the invention is exemplified by a NanB fragment (residues 30-697; SEQ ID NO:4) with a single mutation. Exemplary mutation sites include Y653, D270, and E541. Exemplary pan-specific affinity reagents, each having a single mutation in the NanB GH domain as noted, are shown in Table 2 and include Sia-PS1 (Y653F), Sia-PS2 (D270A), Sia-PS3 (D270N), Sia-PS4 (E541A), and Sia-PS5 (E541Q). […] They reduce (Sia-PS2 and Sia-PS3) or effectively eliminate (Sia-PS1, Sia-PS4, and Sia-PS5) catalytic activity, and they broaden specificity for sialic acid ligand binding. The pan-specific sialic acid-recognizing affinity reagent we chose for further validation study was Sia-PS1 that contains the Y653F at active site residue Tyr653. This one mutation, which involves removal of a single hydroxyl group, not only eliminates enzyme activity, but astonishingly introduces pan-specific binding into the mutated, inactivated enzyme, despite its distance from the carbohydrate binding module (CBM) domain of the NanB.
(§3) The flowchart presented in FIG. 2 outlines schematically the methods employed in Example I and II to screen, optimize and select the Lectenz® candidates. The specificity and affinity of potential Lectenz® candidates is evaluated through structurally-guided site-specific and/or site-saturation mutagenesis assays designed to enable the selection of optimal clones. Bio-layer Interferometry (BLI) is used to determine the binding kinetics and affinities for binding to glycans and glycoproteins. Affinity chromatography is performed by immobilizing the Lectenz® candidates in a column format to evaluate their ability to fractionate sialylated- and asialo-glycans and glycoconjugates. All promising Lectenz® candidates are screened against the glycan array at the CFG, which currently contains over 600 O- and N-linked glycans.
(§4) Steady-state binding constants between Lectenz® candidates and sialic acid ligands were measured by BLI.

[2] = molecular target: T2, Streptococcus pneumoniae NanB fragment (residues 30-697, SEQ ID NO:4) variant Sia-PS3, D270N (Streptococcus pneumoniae serotype 4, UniProt Q54727, D270N)
T2 construct: exemplified by a NanB fragment (residues 30-697); made in house; host or cells: pET28a+ based plasmid
T2 sequence (Q54727 30-692 D270N): T1 sequence (Q54727 30-692 Y653F) with D241N, F624Y
Source text: as §1, §2, §3, §4

[3] = molecular target: T3, Streptococcus pneumoniae NanB fragment (residues 30-697, SEQ ID NO:4) variant Sia-PS2, D270A (Streptococcus pneumoniae serotype 4, UniProt Q54727, D270A)
T3 construct: exemplified by a NanB fragment (residues 30-697); made in house; host or cells: pET28a+ based plasmid
T3 sequence (Q54727 30-692 D270A): T1 sequence (Q54727 30-692 Y653F) with D241A, F624Y
Source text: as §1, §2, §3, §4

Structure (SMILES)	binding affinity [1]	binding affinity [2]	KD value [3]	binding affinity [3]
CC(=O)N[C@H]1[C@H]([C@H](O)[C@H](O)CO)O[C@@](O[C@H]2[C@@H](O)[C@@H](CO)O[C@@H](O[C@H]3[C@H](O)[C@@H](O)C(O)O[C@@H]3CO)[C@@H]2O)(C(=O)O)C[C@@H]1O (stereo partly drawn) [3′SL, α2,3-sialyllactose]	micromolar or sub-micromolar; also recorded: sub-micromolar	micromolar or sub-micromolar	higher KD value	micromolar or sub-micromolar
CC(=O)N[C@H]1[C@H]([C@H](O)[C@H](O)CO)O[C@@](OC[C@H]2O[C@@H](O[C@H]3[C@H](O)[C@@H](O)C(O)O[C@@H]3CO)[C@H](O)[C@@H](O)[C@H]2O)(C(=O)O)C[C@@H]1O (stereo partly shown) [6′SL, 6′-sialyllactose (Neu5Acα2,6Galβ1, 4Glcβ, or 6′SL)]	micromolar or sub-micromolar; also recorded: sub-micromolar	micromolar or sub-micromolar		micromolar or sub-micromolar
CC(=O)N[C@H]1[C@H]([C@H](O)[C@H](O)CO)O[C@@](O[C@H](CO)[C@@H](O)[C@@H]2O[C@@](O[C@H]3[C@@H](O)[C@@H](CO)O[C@@H](O[C@H]4[C@H](O)[C@@H](O)C(O)O[C@@H]4CO)[C@@H]3O)(C(=O)O)C[C@H](O)[C@H]2NC(C)=O)(C(=O)O)C[C@@H]1O (stereo partly shown) [GD3, Neu5Acα2,8Neu5Acα2,3Galβ1, 4Glcβ]	micromolar or sub-micromolar; also recorded: sub-micromolar	micromolar or sub-micromolar		micromolar or sub-micromolar

From US11434479B2, “Sialic acid binding polypeptide” (priority 2017, dated 2022)
